Data: patent US20260198493A1, “HYDRAZIDE COMPOUND AND AGRICULTURAL/HORTICULTURAL FUNGICIDE” (Nippon Soda Co., Ltd., priority 2022, published 2026)

How the values were obtained:
Botrytis cinerea [1] = assay type: cell-based; settings: 120 h, 25 ppm by volume, Vogel medium, 20° C., five days, dark, read-out: growth inhibition ratio
Colletotrichum acutatum = assay: Fungicidal effect test against fungi causing apple anthracnose; settings: 96 h, read-out: growth inhibition ratio
Glomerella cingulata = assay: Fungicidal effect test against fungi causing grape ripe rot disease; settings: Colletotrichum gloeosporioides, 72 h, read-out: growth inhibition ratio
Botrytis cinerea [2] = assay: Control test of cucumber gray mold (sprayed young cucumber seedlings); assay type: in vivo; settings: 96 h, 125 ppm by mass spray, four days after inoculation
Method: Then, the drug liquid was sprayed onto young cucumber seedlings cultivated in a nursery pot (variety “Jihai”-based, cotyledon stage), and then air-dried. […] They were left still in a moist room at 20° C. Four days after inoculation, leaves of the young cucumber seedlings were visually observed, and the control value was calculated from the lesion area ratio in accordance with the following equation. [formula]

COC(=O)N(Cc1ccc(C)cc1C)NC(=O)c1cc(S(C)(=O)=O)ncc1Oc1cccc(C2CC2)c1F [b-193]
inhibition of growth at 25 ppm (Botrytis cinerea [1]): ≥ 75% | inhibition of growth at 25 ppm (Colletotrichum acutatum): ≥ 75% | inhibition of growth at 25 ppm (Glomerella cingulata): ≥ 75%

Cc1ccc(CN(NC(=O)c2cc(C)nnc2Oc2cccc(C3CC3)c2F)C(=O)c2ccccc2)c(C)c1 [b-24]
inhibition of growth at 25 ppm (Botrytis cinerea [1]): ≥ 75% | inhibition of growth at 25 ppm (Colletotrichum acutatum): ≥ 75% | inhibition of growth at 25 ppm (Glomerella cingulata): ≥ 75%

Cc1cc(C(=O)NN2CCCc3ccccc32)c(Oc2cccc(C3CC3)c2F)nn1 [b-198]
inhibition of growth at 25 ppm (Glomerella cingulata): ≥ 75%

COC(=O)N(Cc1ccc(C)cc1C)NC(=O)c1cc(C)nnc1Oc1cccc(C(C)C)c1 [b-132]
inhibition of growth at 25 ppm (Colletotrichum acutatum): ≥ 75% | inhibition of growth at 25 ppm (Glomerella cingulata): ≥ 75%

Cc1ccc(CN(NC(=O)c2cc(C)nnc2Oc2cccc(C3CC3)c2F)C(=O)N(C)C)c(C)c1 [b-47]
inhibition of growth at 25 ppm (Colletotrichum acutatum): ≥ 75% | inhibition of growth at 25 ppm (Glomerella cingulata): ≥ 75%

COC(=O)N(Cc1ccc(C)cc1C)NC(=S)c1cc(C)nnc1Oc1cccc(C2CC2)c1F [b-59, Methyl 2-(3-(3-cyclopropyl-2-fluorophenoxy)-6-methylpyridazine-4-carbonothioyl)-1-(2,4-dimethylbenzyl)hydrazine-1-carboxylate]
inhibition of growth at 25 ppm (Botrytis cinerea [1]): ≥ 75% | pest or weed control at 125 ppm (Botrytis cinerea [2]): ≥ 75% | inhibition of growth at 25 ppm (Colletotrichum acutatum): ≥ 75% | inhibition of growth at 25 ppm (Glomerella cingulata): ≥ 75%

Cc1ccc(CN(NC(=O)c2cc(C)nnc2Oc2cccc(C3CC3)c2F)C(=O)C(C)(C)C)c(C)c1 [b-19]
inhibition of growth at 25 ppm (Colletotrichum acutatum): ≥ 75%

COC(=O)N(Cc1ccc(O)cc1C)NC(=O)c1cc(C)nnc1Oc1cccc(C2CC2)c1F [b-41]
inhibition of growth at 25 ppm (Colletotrichum acutatum): ≥ 75% | inhibition of growth at 25 ppm (Glomerella cingulata): ≥ 75%

COC(=O)N(Cc1ccc(OC)cc1C)NC(=O)c1c(Oc2cccc(C3CC3)c2)cnn(C(C)C)c1=O [b-225]
inhibition of growth at 25 ppm (Botrytis cinerea [1]): ≥ 75% | inhibition of growth at 25 ppm (Colletotrichum acutatum): ≥ 75% | inhibition of growth at 25 ppm (Glomerella cingulata): ≥ 75%

COC(=O)N(Cc1ccc(C)cc1C)NC(=O)c1cc(NC(=O)OC(C)(C)C)nnc1Oc1cccc(Cl)c1F [b-218]
inhibition of growth at 25 ppm (Botrytis cinerea [1]): ≥ 75%

COC(=O)N(Cc1ccc(C)cc1C)NC(=O)c1cc2cncn2nc1Oc1cccc(C2CC2)c1 [b-210, Methyl 2-(2-(3-cyclopropylphenoxy)imidazo[1,5-b]pyridazine-3-carbonyl)-1-(2,4-dimethylbenzyl)hydrazine-1-carboxylate]
inhibition of growth at 25 ppm (Colletotrichum acutatum): ≥ 75% | inhibition of growth at 25 ppm (Glomerella cingulata): ≥ 75%

COC(=O)N(Cc1ccc(C)cc1C)NC(=O)c1cc(C)nnc1Sc1cccc(C(F)(F)F)c1 [b-78, Methyl 1-(2,4-dimethylbenzyl)-2-(6-methyl-3-((3-(trifluoromethyl)phenyl)thio)pyridazine-4-carbonyl)hydrazine-1-carboxylate]
inhibition of growth at 25 ppm (Botrytis cinerea [1]): ≥ 75% | inhibition of growth at 25 ppm (Colletotrichum acutatum): ≥ 75% | inhibition of growth at 25 ppm (Glomerella cingulata): ≥ 75%

COC(=O)N(NC(=O)c1cc(C)nnc1Oc1cccc(C2CC2)c1F)C1(c2ccc(Br)cc2)CC1 [b-179]
inhibition of growth at 25 ppm (Botrytis cinerea [1]): ≥ 75% | inhibition of growth at 25 ppm (Colletotrichum acutatum): ≥ 75% | inhibition of growth at 25 ppm (Glomerella cingulata): ≥ 75%

COC(=O)N(Cc1ccc(C)cc1C)NC(=O)c1c(Oc2cccc(C3CC3)c2F)cncc1C(C)=O [b-221]
inhibition of growth at 25 ppm (Botrytis cinerea [1]): ≥ 75% | inhibition of growth at 25 ppm (Colletotrichum acutatum): ≥ 75% | inhibition of growth at 25 ppm (Glomerella cingulata): ≥ 75%

COC(=O)N(Cc1ccc(C)cc1C)NC(=O)c1cc(C)nnc1Oc1ccc2cccnc2c1 [b-97]
inhibition of growth at 25 ppm (Glomerella cingulata): ≥ 75%

COC(=O)C(=O)N(Cc1ccc(C)cc1C)NC(=O)c1cc(C)nnc1Oc1cccc(C2CC2)c1F [b-82]
inhibition of growth at 25 ppm (Botrytis cinerea [1]): ≥ 75% | inhibition of growth at 25 ppm (Colletotrichum acutatum): ≥ 75% | inhibition of growth at 25 ppm (Glomerella cingulata): ≥ 75%

Cc1ccc(CN(NC(=O)c2cc(C)nnc2Oc2cccc(C3CC3)c2F)C(=O)c2cnn(C)c2)c(C)c1 [b-39]
inhibition of growth at 25 ppm (Botrytis cinerea [1]): ≥ 75% | inhibition of growth at 25 ppm (Colletotrichum acutatum): ≥ 75% | inhibition of growth at 25 ppm (Glomerella cingulata): ≥ 75%

COC(=O)N(Cc1ccc(C)cc1C)NC(=O)c1cc(C)nnc1Oc1cccc(SC)c1 [b-136]
inhibition of growth at 25 ppm (Botrytis cinerea [1]): ≥ 75% | inhibition of growth at 25 ppm (Colletotrichum acutatum): ≥ 75% | inhibition of growth at 25 ppm (Glomerella cingulata): ≥ 75%

Cc1ccc(CN(NC(=O)c2cc(C)ncc2Oc2cccc(C3CC3)c2F)C(=O)N(C)C)c(C)c1 [b-48]
inhibition of growth at 25 ppm (Botrytis cinerea [1]): ≥ 75% | inhibition of growth at 25 ppm (Colletotrichum acutatum): ≥ 75% | inhibition of growth at 25 ppm (Glomerella cingulata): ≥ 75%

COC(=O)N(Cc1cnc2ccccc2c1)NC(=O)c1cc(C)nnc1Oc1cccc(C2CC2)c1F [b-161]
inhibition of growth at 25 ppm (Colletotrichum acutatum): ≥ 75% | inhibition of growth at 25 ppm (Glomerella cingulata): ≥ 75%

COC(=O)N(Cc1ccc(C)cc1C)NC(=O)c1cc(C)nnc1Oc1ccc(Br)cc1F [b-98]
inhibition of growth at 25 ppm (Botrytis cinerea [1]): ≥ 75%

COc1ccc(CN(NC(=O)c2cc(C)nnc2Oc2cccc(C3CC3)c2F)c2cccc(C)c2)cc1 [b-73]
inhibition of growth at 25 ppm (Glomerella cingulata): ≥ 75%

Cc1ccc(CN(NC(=O)c2cc(C)nnc2Oc2cccc(C3CC3)c2F)C(=O)C(=O)N(C)C)c(C)c1 [b-56]
inhibition of growth at 25 ppm (Colletotrichum acutatum): ≥ 75% | inhibition of growth at 25 ppm (Glomerella cingulata): ≥ 75%

COC(=O)N(Cc1ccc(C)cc1C)NC(=O)c1cc(C)nnc1Oc1cccc(C(C)=O)c1 [b-131]
inhibition of growth at 25 ppm (Colletotrichum acutatum): ≥ 75% | inhibition of growth at 25 ppm (Glomerella cingulata): ≥ 75%

CC(=O)N(Cc1ccc(C)cc1C)NC(=O)c1cc(Cl)nnc1Oc1cccc(C(F)(F)F)c1 [b-11]
inhibition of growth at 25 ppm (Botrytis cinerea [1]): ≥ 75% | inhibition of growth at 25 ppm (Colletotrichum acutatum): ≥ 75% | inhibition of growth at 25 ppm (Glomerella cingulata): ≥ 75%

COC(=O)N(CCCc1ccc(C)cc1)NC(=O)c1cc(C)nnc1Oc1cccc(C2CC2)c1F [b-89]
inhibition of growth at 25 ppm (Botrytis cinerea [1]): ≥ 75% | inhibition of growth at 25 ppm (Colletotrichum acutatum): ≥ 75% | inhibition of growth at 25 ppm (Glomerella cingulata): ≥ 75%

COC(=O)N(Cc1ccc(C)cc1C)NC(=O)c1cc(C)nnc1Oc1cccc(C2CC2)c1F [b-17]
inhibition of growth at 25 ppm (Botrytis cinerea [1]): ≥ 75% | inhibition of growth at 25 ppm (Colletotrichum acutatum): ≥ 75% | inhibition of growth at 25 ppm (Glomerella cingulata): ≥ 75%

Cc1ccc(CN(NC(=O)c2cc(C)nnc2Oc2cccc(C3CC3)c2F)C(=O)C(F)(F)F)c(C)c1 [b-4]
inhibition of growth at 25 ppm (Botrytis cinerea [1]): ≥ 75% | inhibition of growth at 25 ppm (Colletotrichum acutatum): ≥ 75% | inhibition of growth at 25 ppm (Glomerella cingulata): ≥ 75%

COC(=O)N(Cc1ccc(C)cc1C)NC(=O)c1nc(C)nnc1Oc1cccc(Br)c1 [b-129]
inhibition of growth at 25 ppm (Botrytis cinerea [1]): ≥ 75% | inhibition of growth at 25 ppm (Colletotrichum acutatum): ≥ 75% | inhibition of growth at 25 ppm (Glomerella cingulata): ≥ 75%

COC(=O)N(Cc1ccc(C)cc1C)NC(=O)c1c(Oc2cccc(Cl)c2F)cncc1Oc1cccc(Cl)c1F [b-203]
inhibition of growth at 25 ppm (Colletotrichum acutatum): ≥ 75% | inhibition of growth at 25 ppm (Glomerella cingulata): ≥ 75%

COC(=O)N(Cc1ccc(C)cc1C)NC(=O)c1cc(C)nnc1Oc1ccc(C2CC2)cc1 [b-54]
inhibition of growth at 25 ppm (Botrytis cinerea [1]): ≥ 75% | inhibition of growth at 25 ppm (Colletotrichum acutatum): ≥ 75% | inhibition of growth at 25 ppm (Glomerella cingulata): ≥ 75%

COC(=O)N(NC(=O)c1cc(C)nnc1Oc1cccc(C2CC2)c1F)c1ccc(C)s1 [b-222]
inhibition of growth at 25 ppm (Glomerella cingulata): ≥ 75%

COC(=O)N(Cc1ccc(C)cc1C)NC(=O)c1cc(C)nnc1Oc1cccc(N(C)C)c1 [b-137]
inhibition of growth at 25 ppm (Colletotrichum acutatum): ≥ 75% | inhibition of growth at 25 ppm (Glomerella cingulata): ≥ 75%

Cc1cc(C(=O)NN(C=O)Cc2ccc(Cl)cc2Cl)c(Oc2cccc(C3CC3)c2F)nn1 [b-12]
inhibition of growth at 25 ppm (Botrytis cinerea [1]): ≥ 75% | inhibition of growth at 25 ppm (Colletotrichum acutatum): ≥ 75% | inhibition of growth at 25 ppm (Glomerella cingulata): ≥ 75%

COC(=O)N(Cc1ccc(C)cc1C)N(C)C(=O)c1cc(C)nnc1Oc1cccc(C2CC2)c1F [b-195]
inhibition of growth at 25 ppm (Botrytis cinerea [1]): ≥ 75% | inhibition of growth at 25 ppm (Colletotrichum acutatum): ≥ 75% | inhibition of growth at 25 ppm (Glomerella cingulata): ≥ 75%

COC(=O)N(Cc1ccc(C)cc1C)NC(=O)c1c(C#N)cncc1Oc1cccc(C2CC2)c1F [b-216]
inhibition of growth at 25 ppm (Colletotrichum acutatum): ≥ 75% | inhibition of growth at 25 ppm (Glomerella cingulata): ≥ 75%

COC(=O)N(Cc1sc(Cl)nc1Cl)NC(=O)c1cc(C)nnc1Oc1cccc(C2CC2)c1F [b-120]
inhibition of growth at 25 ppm (Botrytis cinerea [1]): ≥ 75% | inhibition of growth at 25 ppm (Colletotrichum acutatum): ≥ 75% | inhibition of growth at 25 ppm (Glomerella cingulata): ≥ 75%

CSC(=O)N(Cc1ccc(C)cc1C)NC(=O)c1cc(C)nnc1Oc1cccc(C2CC2)c1F [b-166, S-methyl 2-(3-(3-cyclopropyl-2-fluorophenoxy)-6-methylpyridazine-4-carbonyl)-1-(2,4-dimethylbenzyl)hydrazine-1-carbothioate]
inhibition of growth at 25 ppm (Botrytis cinerea [1]): ≥ 75% | inhibition of growth at 25 ppm (Colletotrichum acutatum): ≥ 75% | inhibition of growth at 25 ppm (Glomerella cingulata): ≥ 75%

COC(=O)N(Cc1ccc(C)cc1C)NC(=O)c1cnncc1Oc1cccc(C2CC2)c1F [b-142, Methyl 2-(5-(3-cyclopropyl-2-fluorophenoxy)pyridazine-4-carbonyl)-1-(2,4-dimethylbenzyl)hydrazine-1-carboxylate]
inhibition of growth at 25 ppm (Botrytis cinerea [1]): ≥ 75% | inhibition of growth at 25 ppm (Colletotrichum acutatum): ≥ 75% | inhibition of growth at 25 ppm (Glomerella cingulata): ≥ 75%

COC(=O)N(Cc1ccc(C)cc1C)NC(=O)c1cc(C)nnc1Oc1ccc(Cl)cc1F [b-99]
inhibition of growth at 25 ppm (Botrytis cinerea [1]): ≥ 75%

COC(=O)N(Cc1ccc(C)cc1C)NC(=NO)c1cc(C)nnc1Oc1cccc(C2CC2)c1F [b-63]
inhibition of growth at 25 ppm (Botrytis cinerea [1]): ≥ 75% | inhibition of growth at 25 ppm (Colletotrichum acutatum): ≥ 75% | inhibition of growth at 25 ppm (Glomerella cingulata): ≥ 75%

COC(=O)N(Cc1ccc(C)cc1C)NC(=O)c1cc(C)nnc1Oc1ccc2ccccc2c1 [b-61]
inhibition of growth at 25 ppm (Botrytis cinerea [1]): ≥ 75% | inhibition of growth at 25 ppm (Colletotrichum acutatum): ≥ 75% | inhibition of growth at 25 ppm (Glomerella cingulata): ≥ 75%

COC(=O)N(Cc1ccc(C)cc1C)NC(=O)c1cc(C)nnc1Oc1cccc(OC(F)(F)F)c1 [b-133]
inhibition of growth at 25 ppm (Botrytis cinerea [1]): ≥ 75% | inhibition of growth at 25 ppm (Colletotrichum acutatum): ≥ 75% | inhibition of growth at 25 ppm (Glomerella cingulata): ≥ 75%

Cc1ccc(CN(NC(=O)c2nc(C)ncc2Oc2cccc(C3CC3)c2F)C(=O)N(C)C)c(C)c1 [b-49]
inhibition of growth at 25 ppm (Colletotrichum acutatum): ≥ 75% | inhibition of growth at 25 ppm (Glomerella cingulata): ≥ 75%

Cc1ccc(CN(C)NC(=O)c2cc(C)nnc2Oc2cccc(C3CC3)c2F)c(C)c1 [b-2]
inhibition of growth at 25 ppm (Botrytis cinerea [1]): ≥ 75% | inhibition of growth at 25 ppm (Colletotrichum acutatum): ≥ 75% | inhibition of growth at 25 ppm (Glomerella cingulata): ≥ 75%

COC(=O)N(Cc1ccc(C)cc1C)NC(=O)c1cc(-c2ccc(F)cc2)ncc1Oc1cccc(C2CC2)c1F [b-185]
inhibition of growth at 25 ppm (Botrytis cinerea [1]): ≥ 75% | inhibition of growth at 25 ppm (Colletotrichum acutatum): ≥ 75% | inhibition of growth at 25 ppm (Glomerella cingulata): ≥ 75%
